Measurements taken from ChEMBL document CHEMBL5604061, “ASAP - WNV NS2B-NS3 protease fluorescence dose response” (2024).
Several values for one entry are separate records, joined by “and”; a condition that tells them apart may be missing. Equal values may be shown once.

Target: T1, NS3 (West Nile virus, UniProt K4FQI5)
T1 sequence (K4FQI5 whole entry): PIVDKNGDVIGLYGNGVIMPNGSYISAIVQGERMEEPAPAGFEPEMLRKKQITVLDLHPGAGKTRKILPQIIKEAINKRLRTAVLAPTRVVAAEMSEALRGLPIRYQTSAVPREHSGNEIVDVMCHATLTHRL
Experiment: Functional biochemical assay to identify treatments for viral infectious disease that targets West Nile NS2B-NS3 protease. Utilizing a direct enzyme activity measurement method, reading the fluorescence intensity is used to characterize the relative potency of inhibitors as IC50.
Parameters: species or system NY-99

SMILES | IC50
CCCn1ncc2c(C(=O)Nc3ccc4c(c3)CNC4)cc(Cl)cc21 | 12.5 µM
O=C(Nc1ccc2c(c1)CNC2)c1ccc2c(C3=CCNCC3)csc2c1 | 7.5 µM
O=C(NCCCF)[C@H](Nc1ccc2c(c1)CNC2)c1cc(Cl)cc(C2CC2)c1 | 0.249 µM
O=C(Nc1ccc2c(c1)CNC2)c1cc(F)cc2nn(-c3ccccn3)nc12 | 7.11 µM
N#C[C@H](Nc1cccc(-c2nn[nH]n2)c1)c1cc(Cl)cc(NC(=O)OCc2ccccc2)c1 | 28.7 µM
Clc1cc([C@@H]2C[C@H]2c2cccc(C3CCNCC3)c2)c2cn[nH]c2c1 | 10.9 µM
CC(C)NC(=O)[C@H](Nc1ccc2c(c1)CNC2)c1cc(Cl)cc2[nH]c(-c3ccccc3)nc12 | 0.28 µM and 0.286 µM and 0.152 µM and 0.255 µM
O=C(Nc1ccc2c(c1)CNC2)c1cc(Cl)cc2nn(C3CCOCC3)cc12 | 14 µM
O=C(NCC1CCOCC1)[C@H](Nc1ccc2c(c1)CNC2)c1cc(Cl)cc2[nH]ncc12 | 2.28 µM
O=C(Nc1ccc2c(c1)CNC2)c1cc(F)cc2[nH]ncc12 | 1.42 µM
CC(C)n1ncc2c(C(=O)Nc3ccc4c(c3)CNC4)cc(Cl)cc21 | 18.2 µM
O=C(Nc1ccc2c(c1)CNC2)c1cc(Cl)cc(-n2cccc2)c1 | 12.9 µM
O=C(NCC(F)F)[C@H](Nc1ccc2c(c1)CNC2)c1cc(Cl)cc2c1CCC2 | 0.42 µM
CNC(=O)[C@H](Nc1cc(CN)cc(-c2nn[nH]n2)c1)c1cc(Cl)cc(C2CC2)c1 | 1 µM
O=C(Nc1ccc2c(c1)CNC2)c1cc(Br)cc2[nH]c(C3CCOCC3)nc12 | > 99.5 µM
O=C(NCc1cccnc1)[C@H](Nc1ccc2c(c1)CNC2)c1cc(Cl)cc2[nH]ncc12 | 1.37 µM
O=C(Nc1ccc(F)nc1)Oc1ccccc1 | > 100 µM
O=C(Nc1ccc2c(c1)CNCCC2)c1cc(Cl)cc2[nH]ncc12 | 3.25 µM
N=C(N)NCc1ccc(OC(=O)Nc2ccccc2)cc1 | > 100 µM
Cn1cc(CCc2nc3c(C(=O)Nc4ccc5c(c4)CNC5)cc(Cl)cc3[nH]2)cn1 | 44.5 µM
O=C(Nc1ccc2c(c1)CNC2)c1cc(Br)cc2[nH]c([C@H]3CCOC3)nc12 | 92.3 µM
CCCCCC(=O)N[C@H](C(=O)Nc1ccc(C(N)=O)cc1)c1ccc(OCc2ccccc2)cc1 | > 99.5 µM
CS(=O)(=O)NC(=O)c1cc(Cl)ccc1NS(=O)(=O)c1ccc(Oc2ccccc2Cl)cc1 | 74.5 µM
CC(C)Cn1cc2c(C(=O)Nc3ccc4c(c3)CNC4)cc(Cl)cc2n1 | 14.7 µM
CCNC(=O)Nc1cc(Cl)cc(C(=O)Nc2cc(C)cc(CN)c2)c1 | 19.8 µM
O=C(NCC(F)F)[C@H](Nc1ccc2c(c1)CNC2)c1cc(Cl)cc(Cl)c1Cl | 0.936 µM

SMILES | IC50
C=CC[C@H]1NCc2cc(NC(=O)c3cc(F)cc4c3CC(=O)N4)ccc21 | 1.92 µM
NCc1cccc(NC(=O)[C@H](NC(=O)OCc2ccccc2)c2ccc(Br)c(Cl)c2)c1 | 6.57 µM
CCc1cc2c(cc1NC(=O)c1cc(F)cc3[nH]ncc13)CNC2 | 1.59 µM
O=C(Nc1ccc2c(c1)CNC2)c1cccc2c1[C@]1(CCN(C(=O)OCc3ccccc3)C1)C(=O)N2 | 3.55 µM
CC(C)c1nn(C)cc1-c1cc(F)cc(C(=O)Nc2ccc3c(c2)CNC3)c1 | 11.9 µM
CNC(=O)[C@H](Nc1cc(Cl)cc(NC(=O)OCc2ccccc2)c1)c1cccc(-c2nn[nH]n2)c1 | > 99.5 µM
O=C(O)CCCc1cc(NC(=O)c2cc(F)cc3[nH]ncc23)cc2c1CNC2 | 1.51 µM
O=C(Nc1cc2c(c(C3=CCS(=O)(=O)CC3)c1)CNC2)c1cc(F)cc2[nH]ncc12 | 0.892 µM
O=C(NCc1ccc(F)cc1)[C@H](Nc1ccc2c(c1)CNC2)c1cc(Cl)cc2[nH]ncc12 | 1.08 µM
CC(C)NC(=O)[C@H](Nc1ccc2c(c1)CNC2)c1cccc2cn[nH]c12 | 14.1 µM
N#Cc1cccc(-c2nc3c(C(=O)Nc4ccc5c(c4)CNC5)cc(Cl)cc3[nH]2)c1 | 7.57 µM
O=C(Nc1ccc2c(c1)CNC2)c1cc(Cl)cc2c1cnn2C1CCOCC1 | 1.45 µM
O=C(Nc1cc2c(c(-c3ccnnc3)c1)CNC2)c1cc(Cl)cc2[nH]ncc12 | 3.06 µM
O=C(NCC(F)F)[C@H](Nc1ccc2c(c1)CNC2)c1cc(Br)cc2[nH]ccc12 | 0.556 µM
CCc1cccc(-c2nc3c(C(=O)Nc4ccc5c(c4)CNC5)cc(F)cc3[nH]2)c1 | 18.9 µM
O=C(Nc1ccc2c(c1)CNC2)c1cc(Cl)cc2[nH]c(-c3cnccc3O)nc12 | > 99.5 µM
O=C(Nc1ccc2c(c1)CNC2)c1cc(F)cc2[nH]nnc12 | 5.06 µM
CCn1c(=O)c(N2CC[C@@H](CO)C2)nc2ccccc21 | > 99.5 µM
O=C(Nc1ccc2c(c1)CNC2)c1cc(Cl)cc(C2CC2)c1 | 25.5 µM
O=C(Nc1ccc2c(c1)CNC2)c1cc(Br)cc2[nH]c(-c3ccccc3)nc12 | 11.4 µM
COCc1cc(Cl)cc([C@H](Nc2ccc3c(c2)CNC3)C(=O)NCC(F)F)c1 | 0.154 µM
CO[C@H]1C[C@H](n2ncc3c(C(=O)Nc4ccc5c(c4)CNC5)cc(Cl)cc32)C1 | 2.55 µM
Cc1c(C(=O)Nc2cc(-c3cccnc3)ccn2)cc(C2CC2)n1C | 12.8 µM
C=CC[C@H]1NCc2cc(N[C@H](C(=O)NCC(F)F)c3cc(Cl)cc(C4CC4)c3)ccc21 | 0.289 µM
NCc1cccc(NC(=O)c2cc(Cl)cc3[nH]ncc23)c1 | 35.8 µM
N#Cc1ccc(-c2nc3c(C(=O)Nc4ccc5c(c4)CNC5)cc(F)cc3[nH]2)cc1 | 2.91 µM

SMILES | IC50
O=C(Nc1ccc2c(c1)CNC2)c1cc(F)cc2[nH]c(-c3cnccc3O)nc12 | 9.93 µM
O=C(Nc1ccc2c(c1)CNC2)c1ccc2[nH]cc(C3CCNCC3)c2c1 | 11.5 µM
CS(=O)(=O)c1cc2c(cc1NC(=O)c1cc(F)cc3[nH]ncc13)CNC2 | 2.51 µM
O=C(Nc1cnc2c(c1)CNCC2)c1cc(Cl)cc2[nH]ncc12 | 26.5 µM
O=C(Nc1ccc2c(c1)CNC2)c1cccc2c1[C@]1(CCNC1)C(=O)N2 | 1.62 µM
O=C(Nc1cc2c(c(-c3c[nH]c(=O)c(F)c3)c1)CNC2)c1cc(F)cc2[nH]ncc12 | 0.668 µM
O=C(Nc1cc2c(cc1Br)CNC2)c1cc(Cl)cc2[nH]ncc12 | 2.73 µM
N[C@H]1Cc2ccc(NC(=O)c3cc(Cl)cc(NC(=O)OCc4ccccc4)c3)cc2C1 | 35.9 µM
NCc1cc(Cl)cc(C(=O)Nc2ccc3c(c2)CNC3)c1 | 9.96 µM
O=C(Nc1ccc2c(c1)CNCCO2)c1cc(Cl)cc2[nH]ncc12 | 19.6 µM
NCc1cccc(NC(=O)c2cc(Br)cc3[nH]ccc23)c1 | > 99.5 µM
Cn1cc2c(C(=O)Nc3ccc4c(c3)CNC4)cc(F)cc2n1 | 7.38 µM
O=C(NCCOCC1CC1)[C@H](Nc1ccc2c(c1)CNC2)c1cc(Cl)cc(C2CC2)c1 | 0.366 µM
O=C(Nc1ccc2c(c1)CNC2)c1cc(Cl)cc2[nH]c(CCc3cccnc3)nc12 | 87.1 µM
CN(C)C(=O)CCCc1nc2c(C(=O)Nc3ccc4c(c3)CNC4)cc(Cl)cc2[nH]1 | > 99.5 µM
NCCc1ccc(NC(=O)c2cc(Cl)cc(NC(=O)OCc3ccccc3)c2)cc1 | 16 µM
O=C(Nc1ccc2c(c1)CNC2)c1cc(F)cc2[nH]c(CC[C@H]3CCCOC3)nc12 | 3.78 µM
O=C(NCC(F)F)[C@H](Nc1ccc2c(c1)CNC2)c1cc(Cl)cc(C2CC2)c1 | 129 nM (2×) and 840 nM
O=C(Nc1ccc2c(c1)CNC2)c1cc(Cl)cc2[nH]c(-c3ncnn3C3CC3)nc12 | 87.2 µM
O=C(Nc1ccc2c(n1)CNC2)c1cc(Cl)cc2[nH]ncc12 | 35.2 µM
O=C(Nc1ccc2c(c1)CNC2)c1cccc2[nH]c(C(F)(F)F)cc12 | 2.51 µM
N#Cc1cc(C(=O)Nc2ccc3c(c2)CNC3)cc(C(F)(F)F)c1 | 98.1 µM
O=C(NCC(F)F)[C@H](Nc1ccc2c(c1)CNC2)c1cc(Cl)cc2[nH]ncc12 | 2.64 µM
COC(=O)CNC(=O)[C@H](Nc1ccc2c(c1)CNC2)c1cc(Cl)cc(C2CC2)c1 | 0.897 µM
CN1Cc2ccc(NC(=O)c3cc(Cl)cc4[nH]ncc34)cc2C1 | > 99.5 µM
N=C(N)NCCc1cccc(B(O)O)c1 | > 100 µM

SMILES | IC50
N=C(N)NCCc1ccc(NC(=O)Oc2ccccc2)cc1 | 72.1 µM
O=C(Nc1ccc2c(c1)CNC2)c1cc(F)c2[nH]c(=O)[nH]c2c1 | 18 µM
O=C(Nc1ccc2c(c1)CNC2)c1cc(Cl)cc(N2CCCC2)c1 | 42.8 µM
O=C1CCc2c(cccc2C(=O)Nc2ccc3c(c2)CNC3)N1 | 10.8 µM
NCc1cccc(NC(=O)c2cc(Cl)cc(-n3cccc3)c2)c1 | > 99.5 µM
O=C(Nc1ccc2c(c1)CNC2)c1cc(F)cc(-c2cccnc2)c1 | 2.68 µM
O=C(O)c1cc(Cl)c(F)cc1S(=O)(=O)Nc1ccc(Oc2ccccc2Cl)cc1 | 32.6 µM
CO[C@H](C)Cn1cc2c(C(=O)Nc3ccc4c(c3)CNC4)cc(Cl)cc2n1 | 19.8 µM
N#Cc1cc(Cl)cc([C@H](C#N)Nc2ccc3c(c2)CNC3)c1 | 98.5 µM
CSCCCNC(=O)[C@H](Nc1ccc2c(c1)CNC2)c1cc(Cl)cc(C2CC2)c1 | 0.573 µM
Cc1cccc(-c2nc3c(C(=O)Nc4ccc5c(c4)CNC5)cc(F)cc3[nH]2)c1 | 26 µM
COC[C@]1(c2nc3c(C(=O)Nc4ccc5c(c4)CNC5)cc(F)cc3[nH]2)CCOC1 | 20.5 µM
O=C(Nc1ccc2c(c1)CNC2)c1cc(Cl)cc2c1cnn2C[C@H]1CCCO1 | 6.08 µM
CC1=C(c2cc(NC(=O)c3cc(Cl)cc4[nH]ncc34)cc3c2CNC3)CCC1=O | 12.9 µM
Cc1c(C(=O)Nc2cc([C@H]3CCOC3)ccn2)cc(C2CC2)n1C | 2.68 µM
COc1cc(-c2cc(NC(=O)c3cc(F)cc4[nH]ncc34)cc3c2CNC3)ccn1 | 0.801 µM
O=C(Nc1ccc2c(c1)CNC2)c1cc(F)cc(-c2ccc3c(=O)[nH]ncc3c2)c1 | 5.15 µM
O=C(Nc1ccc2c(c1)CNC2)c1cc(Cl)ccc1SC1CCCC1 | > 99.5 µM
COC(=O)[C@H](C)n1cc2c(C(=O)Nc3ccc4c(c3)CNC4)cc(Cl)cc2n1 | 9.12 µM
COCc1cc(Cl)cc(C(=O)Nc2ccc3c(c2)CNC3)c1 | 73.2 µM
O=C(Nc1ccc2c(c1)CNC2)c1cc(Cl)cc2ccncc12 | 9.68 µM
Cn1cc(CNC(=O)[C@H](Nc2ccc3c(c2)CNC3)c2cc(Cl)cc(C3CC3)c2)cn1 | 1.07 µM
Cc1cc(C(=O)Nc2ccc3c(c2)CNC3)cc2nc[nH]c12 | 12.5 µM
